Data as given in US20210015725A1, “SKINCARE PRODUCT AND METHOD OF PREPARATION THEREOF” (FE:I BEAUTY TECH, INC., priority 2012, published 2021).

Assays:
[1] = calcium carbonate 0-10%, various time periods of incubation
Method: Precipitation of iron by calcium carbonate: Iron was added to extracellular matrix, followed by the addition of different concentrations of calcium carbonate (0-10%) (FIG. 5). After various time periods of incubation, a small part of the mixture was filtered using a membrane with a molecular weight cutoff of 5,000 Dalton as previously described in FIG. 4. Levels of iron in the filtrates were determined by Ferrozine.

Ferritin = Ferritin (Homo sapiens, UniProt P02792+P02794); experiment: Reduction of iron from ferritin by vitamin C; format: biochemical
Sequence of Ferritin (P02794 whole entry, species assumed): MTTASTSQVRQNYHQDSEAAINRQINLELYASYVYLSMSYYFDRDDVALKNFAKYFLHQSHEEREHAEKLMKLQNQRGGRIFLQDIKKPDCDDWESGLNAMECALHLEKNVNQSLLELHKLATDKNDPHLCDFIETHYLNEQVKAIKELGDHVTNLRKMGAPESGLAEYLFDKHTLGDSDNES
Sequence of Ferritin (P02792 whole entry, species assumed): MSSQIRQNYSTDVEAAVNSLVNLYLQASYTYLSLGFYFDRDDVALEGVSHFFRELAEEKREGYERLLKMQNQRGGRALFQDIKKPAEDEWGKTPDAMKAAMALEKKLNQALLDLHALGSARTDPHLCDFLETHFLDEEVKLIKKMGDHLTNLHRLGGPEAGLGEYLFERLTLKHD
Method: Reduction of iron from ferritin by vitamin C: Ferritin at a concentration of 1 mg/ml was incubated with various concentrations of vitamin C (0-500 μM). […] Levels of iron in the filtrates were measured by Ferrozine (Sigma, St. Louis, Mo.), which forms a stable magenta-colored complex (Fe^2+-ferrozine) with a maximum absorption at 560 nm. In brief, 30 μl sample was added to 135 μl buffer. After 10 min incubation at 37° C., the absorbance was measured at 560 nm using a UV—visible microplate reader (SpectraMax Plus, Molecular Devices, Sunnyvale, Calif.). Then, 5 μl iron chromogenic agent (ferrozine) was added and after 15 min incubation, the absorbance was measured again at 560 nm. The difference in absorbance was used to calculate iron concentration after comparing to the iron standard curve. To determine whether iron is completely released from ferritin, atomic absorption (AA) was used to measure total iron in ferritin.

O=C([O-])[O-].[Ca+2] [calcium carbonate]
precipitation of iron (iron in filtrates by Ferrozine) [1]: can effectively precipitate iron

O=C1O[C@H]([C@@H](O)CO)C(O)=C1O [vitamin C]
completeness of iron release from ferritin (atomic absorption, total iron) (Ferritin; after vitamin C reduction): all iron in ferritin is released | release of iron from ferritin (iron in filtrates measured by Ferrozine) (Ferritin; ferritin 1 mg/ml, vitamin C 0-500 μM, one hour incubation): effective in releasing iron from ferritin
